According to article PMC6024679 (Toxins, 2018):
Several values for one entry are separate records, joined by “and”; a condition that tells them apart may be missing. Equal values may be shown once. Read-outs that look alike come from different tables or passages of the source.

Columns and labels:
mammalian NaVs = conditions: cited from earlier work
From the text: (§1) The first insect NaV gene (para) was cloned from Drosophila melanogaster. After that, lots of studies had cloned NaV genes from many arthropod pests and disease vectors, and most insects have only one para-like NaV gene. […] We speculated that μ-SPRTX-Hv2 is also a broad-spectrum insecticide but it is yet to be experimentally determined. In Blattella ger ...

insect CaVs = conditions: ω-hexatoxin-Hv1a; cited from earlier work
cockroaches [1] = experiment: Lethal effect in cockroaches after injection of toxin, LD50 at 24 h; assay type: in vivo, cockroach
Protocol: Fifty-six cockroaches were randomly divided into eight groups (n = 7 in each group). Seven groups were used as experimental groups, to which 10 μL toxin solution (dissolved in saline) was injected between the fourth and fifth sternite, at single dose of 0.29, 0.53, 0.96, 1.74, 3.09, 5.56, or 10 nmol/g for each group. The eighth group was used as experimental control and was injected with 10 μL saline. Lethal effect was observed 24 h after injection. The LD50 value was determined by using the improved Karber’s method. For testing the toxicity of μ-SPRTX-Hv2 to mouse, toxin at a single dose of 1.7 nmol/g (7.0 µg/g) was injected intraperitoneally.

[2] = tested on: NaVs in cockroach DUM neurons; experiment: Whole-cell patch-clamp of voltage-gated sodium channels in cockroach DUM neurons; assay type: cell-based
DUM HVA CaVs = experiment: Whole-cell patch-clamp of HVA calcium channels in cockroach DUM neurons; assay type: cell-based
[3] = tested on: tetrodotoxin sensitive NaVs (TTX-S NaVs) in rat DRG neurons; assay type: cell-based
[4] = tested on: HVA CaVs in rat DRG neurons; experiment: Whole-cell patch-clamp of HVA CaVs in rat DRG neurons; assay type: cell-based
hNaV1.5 = experiment: Whole-cell patch-clamp of NaV1.5 in HEK293T cells; assay type: cell-based, human (h, as printed in hNaV1.5)
hNaV1.7 = experiment: Whole-cell patch-clamp of NaV1.7 in HEK293T cells; assay type: cell-based, human (h, as printed in hNaV1.7)
rNaV1.8 = experiment: Whole-cell patch-clamp of NaV1.8 in ND7/23 cells; assay type: cell-based, rat (r, as printed in rNaV1.8)
mouse = conditions: 7.0 μg/g (1.7 nmol/g), intraperitoneal, single dose, n = 3
NaV1.7 channel = conditions: physiological depolarizing voltages; cited from earlier work
From the text: as §1

[5] = tested on: PaNaV1 and BgNaV1 channels; conditions: β-Diguetoxin-Dc1a; cited from earlier work
cockroaches [6] = conditions: cited from earlier work
meal beetles = conditions: cited from earlier work

NC1=N[C@H](O)[C@H]2[C@H]3O[C@]4(O)O[C@@H]([C@@H](O)[C@@]2(N1)[C@@H]4O)[C@]3(O)CO [TTX, tetrodotoxin]
mode of action on mammalian NaVs (mammalian NaVs): physically blocking the ion conducting pathway

ω-hexatoxin-Hv1a
effect on insect CaVs (insect CaVs): acting on the insect CaVs

μ-sparatoxin-Hv2 [μ-SPRTX-Hv2]
LD50 (cockroaches [1]; cockroaches, calculated): 11.7 μg/g of body weight
LD50 (cockroaches [1]; in vivo, ip): 3.6 nmol/g of body weight
LD50 (cockroaches [1]; synthetic toxin, cockroaches, 10 μL in saline injected between fourth and fifth sternite, single dose 0.29-10 nmol/g, n = 7 per group, 24 h after injection, improved Karber's method): 2.8 nmol/g of body weight
IC50 [2]: 834 nM and 718 nM
Ka (slope factor, steady-state activation) after toxin treatment [2]: 4.4 ± 0.4 mV
Kh (slope factor, steady-state inactivation) after toxin treatment [2]: −5.4 ± 0.3 mV
Va (steady-state activation) after toxin treatment [2]: −23.0 ± 3.7 mV
Vh (steady-state inactivation) after toxin treatment [2]: −38.7 ± 4.1 mV
association time constant (τon) [2]: 13.8 ± 1.7 s
block of currents across voltages (I–V relationship) [2]: blocked the currents at all voltage tested
effect on initial activation voltage, peak current voltage and reversal voltage [2]: did not affect the initial activation voltage, the peak current voltage and the reversal voltage
reversibility of block on washing by bath solution perfusion [2]: could not be washed off by bath solution perfusion
effect on DUM HVA CaVs currents (DUM HVA CaVs): did not affect the currents of DUM HVA CaVs
effect on TTX-S NaVs currents in rat DRG neurons [3]: did not affect the currents
effect on HVA CaVs currents in rat DRG neurons [4]: did not affect the currents
effect on NaV1.5 currents (hNaV1.5): did not affect
effect on NaV1.7 currents (hNaV1.7): did not affect
effect on NaV1.8 currents (rNaV1.8): did not affect
envenomation symptoms in mouse (mouse): no obvious envenomation symptoms were observed

HWTX-IV: toxin acting on NaV1.7 channel
effect on steady-state activation curve (NaV1.7 channel): did not change the steady-state activation curve

β-Diguetoxin-Dc1a
selectivity between PaNaV1 and BgNaV1 [5]: showed selectivity between the highly conserved PaNaV1 and BgNaV1 channels

brachyin
LD50 (cockroaches [6]): 1.02 pm/g of body weight
LD50 (meal beetles): 1.55 pm/g of body weight
